Experimental data reported in ChEMBL document CHEMBL6153059, “Discovery of a Potent Triazole-Based Reversible Targeted Covalent Inhibitor of Cruzipain” (ACS Med Chem Lett, 2025).
The source made the active and inactive calls. No cut-off for these calls is given here.

Assays:
[1] = target: Cruzipain (Trypanosoma cruzi) (UniProt P25779); test: Inhibition of Trypanosoma cruzi cruzain at 100 uM using Z-FR-AMC as substrate preincubated for 10 mins followed by substrate addition and measured every 5 secs for 10 mins by fluorimetry; conditions: time 20.0 min
Cruzipain (Trypanosoma cruzi), sequence (P25779 123-467 limits assumed): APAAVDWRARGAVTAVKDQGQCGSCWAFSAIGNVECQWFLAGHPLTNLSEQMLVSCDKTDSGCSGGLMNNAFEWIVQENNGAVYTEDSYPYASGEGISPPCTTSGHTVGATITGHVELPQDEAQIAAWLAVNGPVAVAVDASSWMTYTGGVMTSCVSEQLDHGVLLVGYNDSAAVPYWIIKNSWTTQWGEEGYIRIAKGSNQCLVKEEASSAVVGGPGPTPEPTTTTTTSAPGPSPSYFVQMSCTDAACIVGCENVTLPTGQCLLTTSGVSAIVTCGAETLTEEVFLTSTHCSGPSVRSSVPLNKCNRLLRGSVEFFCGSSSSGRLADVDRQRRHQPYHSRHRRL

[2] = target: Cruzipain (Trypanosoma cruzi) (UniProt P25779); test: Inhibition of Trypanosoma cruzi cruzain at 100 uM using Z-FR-AMC as substrate measured every 5 secs for 10 mins by fluorimetry
Trypanosoma cruzi [3] = test: Antitrypanosomal activity against Trypanosoma cruzi Tulahuen trypomastigotes expressing Escherichia coli beta-galactosidase infected in African green monkey Vero cells incubated for 72 hrs by ONPG dye based microplate reader analysis; type: functional, organism-based
Cruzipain = Cruzipain (Trypanosoma cruzi, UniProt P25779); test: Inhibition of Trypanosoma cruzi cruzain using Z-FR-AMC as substrate preincubated for 10 mins followed by substrate addition and measured every 5 secs for 10 mins by fluorimetry
Cruzipain, sequence (P25779 whole entry): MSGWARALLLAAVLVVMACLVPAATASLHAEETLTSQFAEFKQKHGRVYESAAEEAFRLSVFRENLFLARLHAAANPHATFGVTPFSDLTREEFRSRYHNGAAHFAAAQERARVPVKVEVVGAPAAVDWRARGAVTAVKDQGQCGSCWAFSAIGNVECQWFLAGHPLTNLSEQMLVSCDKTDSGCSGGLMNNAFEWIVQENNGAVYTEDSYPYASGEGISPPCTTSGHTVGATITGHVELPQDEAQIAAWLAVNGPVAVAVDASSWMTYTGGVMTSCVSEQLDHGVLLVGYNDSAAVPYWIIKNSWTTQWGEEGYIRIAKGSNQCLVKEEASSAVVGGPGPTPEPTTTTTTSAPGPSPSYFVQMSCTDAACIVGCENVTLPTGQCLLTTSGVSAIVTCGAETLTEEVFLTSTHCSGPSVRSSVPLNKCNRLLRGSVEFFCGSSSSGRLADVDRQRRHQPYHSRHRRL

Trypanosoma cruzi [4] = test: Antitrypanosomal activity against Trypanosoma cruzi Tulahuen trypomastigotes expressing Escherichia coli beta-galactosidase infected in African green monkey Vero cells at 50 uM incubated for 72 hrs by ONPG dye based microplate reader analysis; type: functional
[5] = target: Cruzipain (Trypanosoma cruzi) (UniProt P25779); test: Covalent reversible inhibition of Trypanosoma cruzi cruzain assessed as recovery of enzyme activity using Z-FR-AMC as substrate at 0.1XIC50 and measured for 2 hrs by jump dilution assay
[6] = Dissociation constant, pKa of the compound for secondary ammonium by potentiometric titration analysis; type: physicochemical
Trypanosoma cruzi [7] = test: Antitrypanosomal activity against Trypanosoma cruzi Tulahuen trypomastigotes expressing Escherichia coli beta-galactosidase infected in African green monkey Vero cells at 10 uM incubated for 72 hrs by ONPG dye based microplate reader analysis; type: functional
cathepsin L = cathepsin L (Homo sapiens, UniProt P07711); test: Inhibition of recombinant human cathepsin L expressed in FreeStyle 293-F cells using Z-FR-AMC as substrate at 100 uM preincubated for 10 mins followed by substrate addition and measured for 20 mins by fluorimetry; conditions: probe Z-FR-AMC, time 30 min
cathepsin L, sequence (P07711 whole entry): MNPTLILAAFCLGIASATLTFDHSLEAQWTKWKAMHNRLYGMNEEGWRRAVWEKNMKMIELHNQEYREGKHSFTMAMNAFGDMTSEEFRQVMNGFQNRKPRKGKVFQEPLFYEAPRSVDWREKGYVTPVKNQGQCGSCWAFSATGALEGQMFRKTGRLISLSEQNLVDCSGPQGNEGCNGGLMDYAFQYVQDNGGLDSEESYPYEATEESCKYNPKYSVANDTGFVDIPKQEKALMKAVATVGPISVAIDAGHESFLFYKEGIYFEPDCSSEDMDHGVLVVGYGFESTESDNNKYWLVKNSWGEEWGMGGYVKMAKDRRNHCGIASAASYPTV

[8] = Cytotoxicity against African green monkey Vero cells assessed as cell viability at 50 uM incubated for 96 hrs by resazurin dye based fluorescence analysis relative to control; type: toxicity; conditions: chlorocebus sabaeus, read-out: Activity
[9] = target: Cruzipain (Trypanosoma cruzi) (UniProt P25779); test: Covalent reversible inhibition of Trypanosoma cruzi cruzain using Z-FR-AMC as substrate at 0.1XIC50 and measured at 10 mins post-dilution by jump dilution assay
[10] = Dissociation constant, pKa of the compound for carboxyl group by potentiometric titration analysis; type: physicochemical

SMILES | inhibition [1] [%] | inhibition [2] [%] | IC50 (Cruzipain) [µM] | inhibition at 20 min, 100 µM (cathepsin L) [%] | other results
CC(C)[C@H](CS)n1cc(C(NCc2ccc3c(c2)OCO3)C2CCCCC2)nn1 (stereo partly drawn) | 43 | 6 | – | – | –
COc1ccc(COC(=O)[C@H](CS)n2cc(C(NCc3ccc4c(c3)OCO4)C3CCCCC3)nn2)cc1 (stereo partly drawn) | 28 | – | – | – | –
CCOC(=O)[C@H](CS)n1cc(C(NCc2ccc3c(c2)OCO3)C2CCCCC2)nn1 (stereo partly drawn) | 46 | 3 | – | – | –
O=C(O)[C@H](CSC(c1ccccc1)(c1ccccc1)c1ccccc1)n1cc(C(NCc2ccc3c(c2)OCO3)C2CCCCC2)nn1 (stereo partly drawn) | – | – | 6 | 100 | pKa [10]: 3
SC[C@@H](Cc1ccccc1)n1cc(C(NCc2ccc3c(c2)OCO3)C2CCCCC2)nn1 (stereo partly drawn) | 79 | 12 | 7 | 0 | –

Now from value to molecule, other results behind:

inhibition [1] [%] | inhibition [2] [%] | IC50 (Cruzipain) [µM] | SMILES | inhibition at 20 min, 100 µM (cathepsin L) [%] | other results
– | – | 3.3 | NCCCC[C@@H](C=O)n1cc(C(NCc2ccc3c(c2)OCO3)C2CCCCC2)nn1 (stereo partly drawn) | – | IC50 (Trypanosoma cruzi [3]): 3.2 µM
53 | 6 | – | COC(=O)[C@H](CS)n1cc(C(NCc2ccc3c(c2)OCO3)C2CCCCC2)nn1 (stereo partly drawn) | – | –
100 | 13 | 0.028 | O=C(O)[C@H](CS)n1cc(C(NCc2ccc3c(c2)OCO3)C2CCCCC2)nn1 (stereo partly drawn) | 0 | inhibition at 50 µM (Trypanosoma cruzi [4]): 98%; IC50 (Trypanosoma cruzi [3]): 6.67 µM; inhibition [5]: Active; pKa [6]: 8.1; inhibition at 10 µM (Trypanosoma cruzi [7]): 76%; viability at 96 h, 50 µM [8]: 80%; inhibition [9]: inactive; pKa [10]: 4
